Measured values reported in publication PMC12656546, “Enterohepatic Recirculation-Mediated Reabsorption of Aristolochic Acid I: Revealed by Toxicokinetics and Metabolite Identification in Rats” (Toxics, 2025).

Experiment: Qualitative analysis of AAI and metabolites in bile of bile duct-cannulated rats
Assay type: in vivo, F344 rats
Details: 30 mg/kg AAI oral, bile collected 0–3 h, 3–6 h, 6–9 h, 9–12 h, qualitative UHPLC-Q-Exactive
Experimental: Ten 6-week-old F344 rats were divided into a control group (n = 2) and a treatment group (n = 8), with equal numbers of males and females in each group. During the experiment, rats were fasted and had access to water ad libitum. Rats in the control group were administered with 0.5% CMC-Na suspension via gastric gavage. For the treatment group, rats were administered with 30 mg/kg of AAI by the same route. Rats underwent bile duct cannulation for bile sample collection. Bile samples were collected at consecutive intervals of 0–3 h, 3–6 h, 6–9 h and 9–12 h after administration.
For each bile sample, a 200 μL aliquot of bile was mixed with an equal volume of a methanol/acetonitrile (1:1, v/v) solution. After vortexing for 2 min, the mixture was centrifuged at 13,200 rpm for 10 min. The precipitate was discarded, and the supernatant was dried under nitrogen gas. The dried residue was reconstituted in 80 μL of methanol, vortexed for 2 min, and centrifuged at 13,200 rpm for 15 min. The resulting supernatant was used for further analysis.
Ultra-high-performance liquid chromatography (UHPLC) coupled with a Q-Exactive orbitrap mass spectrometer (Thermo Fisher Scientific, San Jose, CA, USA) was used to analyzed the metabolites of AAI in rat bile. An ACQUITY UPLC BEH C18 column (2.1 mm × 50 mm, 1.7 μm, Waters, Milford, MA, USA) was employed for chromatographic separation. The mobile phase consisted of water containing 5 mmol/L ammonium formate/0.1% formic acid (A) and acetonitrile (B).
Metabolites in bile samples were analyzed using electrospray ionization (ESI) in both positive and negative ion modes. The spray voltage was set at 3500 V for positive mode and 3000 V for negative mode. The ion transfer tube temperature was maintained at 350 °C with a vaporizer temperature of 300 °C. The sheath gas and auxiliary gas flow rates were 35 Arb and 10 Arb. Full-scan MS data were acquired at a resolution of 35,000 within the mass range of m/z 100–1200. For MS/MS analysis, data-dependent acquisition (DDA) was performed at a resolution of 17,500 using high-energy collision dissociation (HCD). Post-acquisition data was imported into Compound Discoverer 2.1 software to identify AAI metabolites. Blank matrices were processed alongside samples to exclude the background interferences.

| Structure (SMILES) | detection in bile (biliary excretion) |
| --- | --- |
| COc1cccc2c1c(O)c1c3c(cc4c(c32)OCO4)C(=O)N1 [ALI-9-OH, 9-hydroxyaristolactam I] | detected in bile samples |
| COc1cccc2c1cc1c3c(cc4c(c32)OCO4)C(=O)N1O [ALI-N-OH, N-hydroxyaristolactam I] | detected in bile samples |
| COc1cccc2c1cc([N+](=O)[O-])c1c(C(=O)OC3OC(C(=O)O)C(O)C(O)C3O)cc3c(c12)OCO3 (stereo not drawn) [AAI-O-glucuronide] | detectable in bile collected during four consecutive periods after oral administration |
